Source: the supplement of paper PMC10307832

Tests used:
Test in all cases: relative viability (nuclei count vs DMSO), 5 days (fraction); higher = more cells survive
Avagacestat + Tozasertib = compound: NC(=O)[C@@H](CCC(F)(F)F)N(Cc1ccc(-c2ncon2)cc1F)S(=O)(=O)c1ccc(Cl)cc1 [Avagacestat] + Cc1cc(Nc2cc(N3CCN(C)CC3)nc(Sc3ccc(NC(=O)C4CC4)cc3)n2)n[nH]1 [Tozasertib] (partner 0.1 µM)
How it was run: (§1)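 Lung cancer cell lines, seeded in 1536-well plates, were treated the following day by pin tool with a single drug or with five library-drug doses (not always all listed) in √10 steps on top of a fixed anchor-drug dose. Cells were fixed and nuclei stained in one step after 5 days, and nuclei were counted. Relative viability is the nuclei count for treated wells divided by that for vehicle wells, reported as medians of duplicate plates.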

Avagacestat + Linsitinib = compound: NC(=O)[C@@H](CCC(F)(F)F)N(Cc1ccc(-c2ncon2)cc1F)S(=O)(=O)c1ccc(Cl)cc1 [Avagacestat] + C[C@]1(O)C[C@@H](c2nc(-c3ccc4ccc(-c5ccccc5)nc4c3)c3c(N)nccn32)C1 [Linsitinib] (partner 1 µM)
How it was run: as §1

Avagacestat + OSI-027 = compound: NC(=O)[C@@H](CCC(F)(F)F)N(Cc1ccc(-c2ncon2)cc1F)S(=O)(=O)c1ccc(Cl)cc1 [Avagacestat] + COc1cccc2cc(-c3nc([C@H]4CC[C@H](C(=O)O)CC4)n4ncnc(N)c34)[nH]c12 [OSI-027] (partner 0.5 µM)
How it was run: as §1

Avagacestat + Crizotinib = compound: NC(=O)[C@@H](CCC(F)(F)F)N(Cc1ccc(-c2ncon2)cc1F)S(=O)(=O)c1ccc(Cl)cc1 [Avagacestat] + C[C@@H](Oc1cc(-c2cnn(C3CCNCC3)c2)cnc1N)c1c(Cl)ccc(F)c1Cl [Crizotinib] (partner 1 µM)
How it was run: as §1

Cell Line | relative viability (Avagacestat + Tozasertib; first compound 0.08 µM) | relative viability (Avagacestat + Tozasertib; first compound 0.253 µM) | relative viability (Avagacestat + Tozasertib; first compound 0.8 µM) | relative viability (Avagacestat + Tozasertib; first compound 2.53 µM) | relative viability (Avagacestat + Tozasertib; first compound 8 µM) | relative viability (Avagacestat + Linsitinib; first compound 0.08 µM) | relative viability (Avagacestat + Linsitinib; first compound 0.253 µM) | relative viability (Avagacestat + Linsitinib; first compound 0.8 µM) | relative viability (Avagacestat + Linsitinib; first compound 2.53 µM) | relative viability (Avagacestat + Linsitinib; first compound 8 µM) | relative viability (Avagacestat + OSI-027; first compound 0.08 µM) | relative viability (Avagacestat + OSI-027; first compound 0.253 µM) | relative viability (Avagacestat + OSI-027; first compound 0.8 µM) | relative viability (Avagacestat + OSI-027; first compound 2.53 µM) | relative viability (Avagacestat + OSI-027; first compound 8 µM) | relative viability (Avagacestat + Crizotinib; first compound 0.08 µM) | relative viability (Avagacestat + Crizotinib; first compound 0.253 µM) | relative viability (Avagacestat + Crizotinib; first compound 0.8 µM) | relative viability (Avagacestat + Crizotinib; first compound 2.53 µM) | relative viability (Avagacestat + Crizotinib; first compound 8 µM)
NCI-H520 | 0.417 | 0.48 | 0.42 | 0.3 | 0.36 | 1.15 | 1.09 | 0.933 | 0.864 | 0.889 | 0.241 | 0.316 | 0.22 | 0.249 | 0.215 | 0.895 | 0.836 | 0.729 | 0.727 | 0.459
NCI-H1793 | 0.307 | 0.329 | 0.655 | 0.239 | 0.3 | 1.01 | 0.926 | 1.02 | 0.913 | 0.657 | 0.327 | 0.338 | 0.373 | 0.233 | 0.249 | – | – | – | – | –
NCI-H2347 | 0.452 | 0.52 | 0.526 | 0.519 | 0.503 | 1.04 | 0.989 | 1.02 | 0.943 | 0.897 | 0.506 | 0.352 | 0.398 | 0.366 | 0.369 | 0.693 | 0.74 | 0.692 | 0.511 | 0.66
HARA | 0.0944 | 0.0986 | 0.0937 | 0.0995 | 0.145 | 1.29 | 1.28 | 1.01 | 0.79 | 0.907 | 0.603 | 0.57 | 0.484 | 0.383 | 0.49 | 1.23 | 1.27 | 1.06 | 1.03 | 0.76
NCI-H1915 | 0.51 | 0.48 | 0.464 | 0.393 | 0.398 | 1.11 | 1.18 | 1.08 | 1.08 | 1.09 | 0.744 | 0.639 | 0.596 | 0.582 | 0.568 | 0.924 | 1.15 | 0.964 | 0.912 | 0.889
NCI-H1734 | 0.235 | 0.301 | 0.264 | 0.236 | 0.24 | 1.2 | 0.924 | 0.946 | 0.819 | 0.782 | 0.612 | 0.713 | 0.643 | 0.552 | 0.515 | 0.969 | 0.755 | 0.705 | 0.733 | 0.575
NCI-H2342 | 0.593 | 0.48 | 0.57 | 0.493 | 0.527 | – | – | – | – | – | 0.589 | 0.597 | 0.674 | 0.602 | 0.572 | – | – | – | – | –
CAL-12T | 0.368 | 0.358 | 0.385 | 0.24 | 0.278 | 0.94 | 0.865 | 0.931 | 0.768 | 0.693 | 1.01 | 0.873 | 0.957 | 0.841 | 0.607 | 0.607 | 0.52 | 0.717 | 0.627 | 0.679
PC-14 | 0.733 | 0.859 | 0.925 | 0.692 | 0.633 | 1.11 | 1.07 | 1.09 | 1 | 0.855 | 1.19 | 0.888 | 0.749 | 0.599 | 0.74 | 0.995 | 0.97 | 0.936 | 1.04 | 0.829
NCI-H2087 | 0.218 | 0.286 | 0.277 | 0.248 | 0.237 | 1.2 | 1.2 | 1.03 | 1.2 | 1.02 | 0.631 | 0.617 | 0.63 | 0.54 | 0.575 | 1.18 | 1.01 | 0.906 | 1.07 | 0.843
NCI-H1395 | 0.826 | 0.758 | 0.752 | 0.64 | 0.715 | 1.11 | 1.1 | 1.04 | 0.869 | 0.881 | 0.631 | 0.633 | 0.634 | 0.588 | 0.626 | – | – | – | – | –
NCI-H1648 | 0.374 | 0.464 | 0.371 | 0.296 | 0.298 | – | – | – | – | – | 0.266 | 0.273 | 0.271 | 0.255 | 0.232 | – | – | – | – | –
NCI-H596 | 0.979 | 0.784 | 0.774 | 0.754 | 0.827 | 1.15 | 1.21 | 1 | 0.827 | 0.986 | 0.81 | 0.814 | 0.688 | 0.734 | 0.593 | 1.1 | 0.944 | 1.02 | 0.78 | 0.925
A549 | – | – | – | – | – | 0.826 | 0.582 | 0.58 | 0.571 | 0.459 | – | – | – | – | – | 1.27 | 1.26 | 0.771 | 0.808 | 0.623
LC-2-ad | 0.453 | 0.384 | 0.427 | 0.197 | 0.367 | 0.819 | 0.896 | 0.87 | 0.778 | 0.807 | 0.796 | 0.898 | 0.855 | 0.795 | 0.739 | 0.548 | 0.367 | 0.458 | 0.435 | 0.391
EKVX | 0.401 | 0.373 | 0.382 | 0.34 | 0.287 | 1.22 | 0.996 | 1.25 | 0.847 | 0.703 | 0.675 | 0.687 | 0.72 | 0.461 | 0.659 | 1.02 | 1.35 | 1.06 | 0.899 | 0.857
ChaGo-K-1 | 0.198 | 0.238 | 0.22 | 0.212 | 0.226 | – | – | – | – | – | 0.659 | 0.655 | 0.6 | 0.456 | 0.451 | 1.06 | 1.31 | 1.11 | 1.05 | 0.974
NCI-H1792 | – | – | – | – | – | 0.648 | 0.424 | 0.692 | 0.383 | 0.368 | 1.03 | – | 0.628 | – | 0.677 | 1.42 | 1.33 | 1.45 | 0.992 | 0.805
